Results as given in US8759308B2, “RNAi probes targeting cancer-related proteins” (The University of British Columbia, priority 2002, dated 2014).
d = 2'-deoxy (DNA); r = 2'-OH (RNA)

Experiments:
CLU protein = assay: CLU gene silencing by siRNA in OS cells (immunoblotting); assay type: cell-based, human; conditions: for CLU protein accumulation following exposure to DXR: KH OS and U-2 OS cells, DXR for 24 h in presence of siRNA; for knock-down of secreted CLU (s-CLU) protein form: OS cells; for cellular CLU protein levels / CLU gene silencing: three OS cell lines, 100 nM siRNA duplex, 2-3 days
Excerpt: The human clusterin cDNA was manually scanned in order to identify sequences of the AA(N19)UU (N, any nucleotide) type that fulfill the required criteria for siRNA (Harbourth et al., J Cell Sci 114: 4557-4560 (2001)). Two such sequences with symmetric 2-nt 3′ overhangs, were found 433 (Cl-I) and 644 (Cl-II) nts downstream of the CLU gene transcription initiation codon. Two additional oligonucleotides used targeted a region 1620 nts downstream of the CLU gene transcription initiation codon (Cl-III) and the human CLU transcription initiation site (Cl-V) (see Table). […] Selected RNA oligos were synthesized by Dharmacon Research, Inc. (Lafayette, Colo.), diluted at a 20 μM final concentration in RNasefree ddH2O and stored at −20° C. The Scramble-I™ (Sc-I) (D-1200-20) and Scramble-II™ (Sc-II) (D-1205-20) oligonucleotides used were purchased from Dharmacon Research, Inc.
siRNA transfection of the Cl-I, Cl-II and scrambled RNA duplexes in exponentiary growing OS cells was performed as described (Harbourth et al., Tuschl et al., Genes Dev. 13: 3191-3197 (1999)). Briefly, cells were seeded the day before siRNA transfection in 24-well plates containing 500 μl complete medium and were ˜40-50% confluent during transfection. For the transfection mixture 100 nM of siRNA duplex per well were used. The RNA duplex was diluted in Opti-MEM® I (Gibco Life Technologies, Inc., San Diego, Calif.) serum free medium and transfection efficiency was enhanced by using the Oligofectamine™ reagent (Invitrogen Life technologies Inc., San Diego, Calif.). When cells were treated with both Cl-i and Cl-II oligonucleotides, 100 nM of each siRNA duplex were used. Cell treatment with the siRNA oligonucleotides lasted for 2-3 days.
(§1) Alternatively, in PC3 cells Lipofectin™ (Invitrogen Life technologies Inc., San Diego, Calif.) was used to enhance transfection with the Cl-III and CL-V oligonucleotides. PC3 cells were treated with 10, 50, or 100 nM of the RNA duplexes after pre-incubation with 4 μg/ml of […] reagent in serum free OptiMEM® I for 20 minutes. Four hours after starting the incubation, the medium containing the RNA duplexes and Lipofectin was replaced with standard tissue culture medium. Cells were treated once on day 1 and then harvested 48 h after treatment on day 3. In all cases controls used included: (a) the usage of the Sc-I and Sc-II RNA duplexes and (b) mock transfections in the absence of a nucleic acid (Con-I). CLU gene silencing was assayed by RNA blot analysis, immunoblotting analysis or confocal immunofluorescence.
Efficient silencing of the CLU gene expression in OS cells is achieved using siRNA.

[1] = tested on: 55 kDa n-CLU protein form; assay: Expression of n-CLU protein form after siRNA; assay type: cell-based, human; conditions: KH OS and U-2 OS cells
Excerpt: (§2) OS cells sensitization to genotoxic and oxidative stress due to CLU gene silencing is related to activation of the cellular apoptotic machinery. […] We assume that the explanation of this effect relies on our observation that the n-CLU protein is extremely stable.

[2] = tested on: 49 kDa c-CLU protein form; assay: Expression of c-CLU protein form after siRNA; assay type: cell-based, human; conditions: KH OS and U-2 OS cells
Excerpt: as §2

IGFBP-5 transcript [3] = assay: IGFBP-5 transcript by RT-PCR in PC3 cells; assay type: cell-based, human; conditions: 10, 50 and 100 nM
Procedure: PC3 cells were transfected with various doses (10, 50 and 100 nM) of the 3 species of bispecies siRNA (BS-1, BS-2 and BS-3) or scrambled control. A vehicle only control was also evaluated. Total. RNA was extracted and analyzed by RT-PCR for IGFBP-5 transcript.

IGFBP-5 transcript [4] = assay: IGFBP-5 transcript by RT-PCR in primary human bone fibroblasts; assay type: cell-based; conditions: 50 nM
Procedure: Primary human bone fibroblasts were transfected with 50 nM of the 3 species of bispecific siRNA (BS-1, BS-2 and BS-3) or scrambled control. A vehicle only and an untreated control were was also evaluated. Total RNA was extracted and analyzed by RT-PCR for IGFBP-5 transcript.

clusterin transcript [5] = assay: Clusterin transcript by Real Time PCR in PC3 cells; assay type: cell-based, human; conditions: 10, 50 or 100 nM, two days
Procedure: (§3) PC3 cells were transfected with siRNA at levels of 10, 50 or 100 nM or with 100 nM scrambled control. Two days after transfection, total RNA was extracted and the level of clusterin transcript was quantified by Real Time PCR.

clusterin transcript [6] = assay: Clusterin transcript by Real Time PCR in A549 cells; assay type: cell-based, human; conditions: 10, 50 or 100 nM, two days
Procedure: as §3
The experiment of Example 9 was repeated using A549 cells in place of PC3 cells.

clusterin transcript [7] = assay: Clusterin transcript by Northern blot in PC3 cells; assay type: cell-based, human; conditions: all doses (10, 50 or 100 nM), two days
Procedure: PC3 cells were treated (1 pulse) with CLU-3 (Seq ID NOs. 5 and 6) or CLU-5 (Seq ID Nos 9 and 10) or with a scrambled control at levels of 10, 50 or 100 nM, or with oligoFECTAMINE™ only. After two days total RNA was extracted and analyzed for clusterin and GADPH by Northern blotting. Densitometric measurement was performed. FIG. 10 presents results of these measurements after normalization to GADPH.

PC3 cells = assay: PC3 cell viability with siRNA and Taxol, MTT assay; assay type: cell-based, human; conditions: 25 nM siRNA, then Taxol three days
Procedure: PC3 cells were treated once with 25 nM human clusterin siRNAs (CLU-3 and CLU-5), a scrambled control, or oligoFECTAMINE™ only. After two days of treatment, the medium was replaced with medium containing various concentrations of Taxol (Paclitaxel). After three days of incubation, cell viability was determined by MTT assay. FIG. 11 summarizes the results.

CLU mRNA and protein = assay: CLU gene silencing by siRNA in PC3 cells (RNA blot, immunoblot); assay type: cell-based, human; conditions: sequence-dependent but dose-independent
Procedure: as §1
Effects of CLU gene silencing in PC-3 prostate cancer cells were determined. Having established the significant effects of CLU knock down in OS cells, we then applied CLU siRNA in PC3 human prostate cancer cells. PC3 cells are p53 null (Rohlff, et al., Prostate 37: 51-59 (1998)) and express relatively low endogenous amount of the s-CLU protein form similar to the Sa OS cells. In PC3 cells, apart from employing the Cl-I and Cl-II oligonucleotides, we also tested two additional CLU-specific siRNA oligonucleotides (Cl-III, Cl-V). […]

Cl-II: clusterin siRNA duplex, SEQ. ID No: 61 and 62; target 644 nts downstream of CLU transcription initiation codon (chain 1 GUCCCGCAUCGUCCGCAGCTT; chain 2 GCUGCGGACGAUGCGGGACTT; sugars from the 5' end r19 d2, backbone not given here)
CLU protein accumulation following exposure to DXR (CLU protein): effectively abolished | knock-down of secreted CLU (s-CLU) protein form (CLU protein): specifically knock-down | cellular CLU protein levels / CLU gene silencing (CLU protein): knocking down significantly | effect on putative 55 kDa n-CLU protein form [1]: did not exert any significant effect | effect on 49 kDa c-CLU protein form level [2]: minor effect

BS-1: IGFBP-2 and -5 bispecific siRNA, double-stranded RNA from Seq. ID NOs. 39 and 40 (chain 1 GGAGCCGGGCUGCGGCUGCTT; chain 2 GCAGCCGCAGCCCGGCUCCTT; sugars from the 5' end r19 d2, backbone not given here)
amount of IGFBP-5 transcript (IGFBP-5 transcript [3]): reduction in the amount of IGFBP-5 transcript | amount of IGFBP-5 transcript (IGFBP-5 transcript [4]): reduction in the amount of IGFBP-5 transcript

BS-2: IGFBP-2 and -5 bispecific siRNA, double-stranded RNA from Seq. ID NOs. 41 and 42 (chain 1 CGUGCGGCGUCUACACCTT; chain 2 GGUGUAGACGCCGCACGTT; sugars from the 5' end r17 d2, backbone not given here)
amount of IGFBP-5 transcript (IGFBP-5 transcript [3]): reduction in the amount of IGFBP-5 transcript | amount of IGFBP-5 transcript (IGFBP-5 transcript [4]): reduction in the amount of IGFBP-5 transcript

CLU3: clusterin siRNA, double-stranded RNA from Seq. ID NOs. 5 and 6 (chain 1 CUAAUUCAAUAAAACUGUCTT; chain 2 GACAGUUUUAUUGAAUUAGTT; sugars from the 5' end r19 d2, backbone not given here)
amount of clusterin transcript (clusterin transcript [5]): reduction in the amount of clusterin transcript | amount of clusterin transcript (clusterin transcript [6]): reduction in the amount of clusterin transcript | amount of clusterin transcript normalized to GADPH (clusterin transcript [7]): Reduction in the amount of clusterin transcript | viable cells with siRNA plus Taxol (PC3 cells): worked in synergy

BS-3: IGFBP-2 and -5 bispecific siRNA, double-stranded RNA from Seq. ID NOs. 43 and 44 (chain 1 CCAGGGGCUGCGCUGCTT; chain 2 GCAGCGCAGCCCCUGGTT; sugars from the 5' end r16 d2, backbone not given here)
amount of IGFBP-5 transcript (IGFBP-5 transcript [3]): reduction in the amount of IGFBP-5 transcript | amount of IGFBP-5 transcript (IGFBP-5 transcript [4]): reduction in the amount of IGFBP-5 transcript

Cl-III: clusterin siRNA duplex, SEQ. ID No: 64 and 65; targets region 1620 nts downstream of initiation codon (chain 1 CUAAUUCAAUAAAACUGUCTT; chain 2 GACAGUUUUAUUGAAUUAGTT; sugars from the 5' end r19 d2, backbone not given here)
silencing CLU RNA and protein expression (CLU mRNA and protein): quite effective

Cl-I: clusterin siRNA duplex, SEQ. ID No: 58 and 59; target 433 nts downstream of CLU transcription initiation codon (chain 1 CCAGAGCUCGCCCUUCUACTT; chain 2 GUAGAAGGGCGAGCUCUGGTT; sugars from the 5' end r19 d2, backbone not given here)
CLU protein accumulation following exposure to DXR (CLU protein): effectively abolished | effectiveness in silencing the CLU gene, Cl-I compared with Cl-II (CLU protein; OS cell lines): slightly more effective than Cl-II | knock-down of secreted CLU (s-CLU) protein form (CLU protein): specifically knock-down | cellular CLU protein levels / CLU gene silencing (CLU protein): knocking down significantly | effect on putative 55 kDa n-CLU protein form [1]: did not exert any significant effect | effect on 49 kDa c-CLU protein form level [2]: minor effect

CLU1: clusterin siRNA, double-stranded RNA from Seq. ID NOs. 1 and 2 (chain 1 CCAGAGCUCGCCCUUCUACTT; chain 2 GUAGAAGGGCGAGCUCUGGTT; sugars from the 5' end r19 d2, backbone not given here)
amount of clusterin transcript (clusterin transcript [5]): reduction in the amount of clusterin transcript | amount of clusterin transcript (clusterin transcript [6]): reduction in the amount of clusterin transcript

Cl-V: clusterin siRNA duplex targeting the human CLU transcription initiation site; Table 7 Cl-IV, SEQ. ID No: 67 and 68 (chain 1 AUGAUGAAGACUCUGCUGC; chain 2 GCAGCAGAGUCUUCAUCAU; RNA, backbone not given here) [clusterin siRNA duplex targeting the human CLU transcription initiation site; ID No: 67 and 68]
silencing CLU RNA and protein expression (CLU mRNA and protein): quite effective
